Test results: patent US12441691B2 (Cytokinetics, Inc., priority 2020, dated 2025)
≈ marks a conversion by molar mass, not a printed value.

Key:
Assay type in all cases: physicochemical
[1] = Water determination by Karl Fischer titration (KF)
Experimental: The water content of each sample was measured on a Metrohm 874 Oven Sample Processor at 150° C. with 851 Titrano Coulometer using Hydranal Coulomat AG oven reagent and nitrogen purge. Weighed solid samples were introduced into a sealed sample vial. Approximately 10 mg of sample was used per titration and duplicate determinations were made. […] Data collection and analysis were performed using Tiamo software.

[2] = Gravimetric vapour sorption (GVS)
Experimental: Sorption isotherms were obtained using a SMS DVS Intrinsic moisture sorption analyser, controlled by DVS Intrinsic Control software. The sample temperature was maintained at 25° C. by the instrument controls. The humidity was controlled by mixing streams of dry and wet nitrogen, with a total flow rate of 200 ml/min. The relative humidity was measured by a calibrated Rotronic probe (dynamic range of 1.0-100% RH), located near the sample. The weight change, (mass relaxation) of the sample as a function of % RH was constantly monitored by a microbalance (accuracy ±0.005 mg).
Typically, 5-30 mg of sample was placed in a tared mesh stainless steel basket under ambient conditions. The sample was loaded and unloaded at 40% RH and 25° C. (typical room conditions). A moisture sorption isotherm was performed as outlined below (2 scans per complete cycle). The standard isotherm was performed at 25° C. at 10% RH intervals over a 0-90% RH range. Typically, a double cycle (4 scans) was carried out. Data analysis was carried out within Microsoft Excel using the DVS Analysis Suite.
The sample was recovered after completion of the isotherm and re-analysed by XRPD.

[3] = Thermodynamic aqueous solubility (FaSSIF)
Experimental: Aqueous solubility was determined by suspending sufficient compound in relevant media to give a maximum final concentration of >10 mg/ml of the parent free-form of the compound. The suspension was equilibrated at 37° C., on a Heidolph plate shaker set to 750 rpm for 24 hours. The pH of the saturated solution was then measured, and the suspension filtered through a glass fibre C filter (particle retention 1.2 μm) and diluted appropriately. Quantitation was by HPLC with reference to a standard solution of approximately 0.15 mg/ml in DMSO. Different volumes of the standard, diluted and undiluted sample solutions were injected. The solubility was calculated using the peak areas determined by integration of the peak found at the same retention time as the principal peak in the standard injection.

## CC[C@H](C)[C@H]1C(=O)Nc2cncc(F)c2CN1C(N)=O [Crystalline Form I, (S)-3-((S)-sec-Butyl)-6-fluoro-2-oxo-1,2,3,5-tetrahydro-4H-pyrido[3,4-e][1,4]diazepine-4-carboxamide]
[1]
  KF water content: 0.1% water
[2]; between 0 and 90% RH, 25° C.
  GVS mass change: 0.29% Mass change between 0 and 90% RH.
  GVS water uptake, mol equivalents of water: 0.04 mol. equivalents water
[2]; form after GVS measurement
  XRPD after GVS analysis: Unchanged
[3]; solid residues after thermodynamic solubility in FaSSIF (37° C.)
  XRPD of solid residues: Form I
[3]; thermodynamic from solid, FaSSIF, 37° C., equilibrated 24 hours
  solubility thermodynamic at 24 h: 460 µg/mL (≈ 1640 µM)
